Experimental data published in patent US20060094676A1, “Compositions and methods for treating cancer using compositions comprising an inhibitor of endothelin receptor activity” (priority 2004, published 2006).

Tests used:
[1] = system: Me 191-I/GG (Primary) melanoma cells; experiment: MTS assay of cell viability after BQ788; type: cell-based; conditions: incubation with BQ788 for seven days; Primary line
Description: Cells were cultured on a matrigel matrix that was histologically examined after two weeks (A-F). While the primary melanoma cells remained on top of the gel only (A and B), a fraction of the Cut-met cells invaded the gel (C and D) and the LN-met cells invaded the matrix extensively (E and F). Cell lysates of the three lines were subjected to western blot analysis using an anti-ETRB Ab (G) and an anti-tubulin Ab (H). Untreated, control (vehicle treated), and BQ788 treated cells were subjected to MTS assay to quantify any reduction in cell number. The mean values were calculated and plotted (I) as the percentage of the vehicle treated value+/− SEM.
Human melanoma cell lines Me191-1/GG (Primary), Me 190/DA (Cut-met), Me 275/EP (LN-met) were obtained from the Ludwig Institute (Epalinges, Switzerland) and SK-MEL-28 was obtained from the American Tissue Culture Collection (ATCC). […] After removal of the inserts, MTS solution was added to the well to quantify the cells that migrated through the insert and were attached to the bottom of the well by measuring the OD at 492 nm (Promega). […]
To address the relationship between the level of progression of human melanoma and responsiveness to BQ788 treatment, 3 cell lines that had been grown in culture for a restricted number of passages were used. […] This effect was quantified using the MTS assay.

HIF-1α = experiment: Real-time RT-PCR of HIF-1α transcripts; type: cell-based, human; conditions: melanoma cell lines treated with BQ788; amplitude correlates with VEGF changes
Description: Equal amounts of RNA from cells that were treated with BQ788 for 3 days were subjected to real-time RT-PCR analysis for the detection VEGF (A), HIF-1α (B) and Gravin (C) transcripts. Differences in expression levels are shown as x fold change and are statistically significant (p<0.05) unless a column in marked as non significant (N.S.). Sections of two representative tumors derived from a human melanoma cell line grown in nude mice and injected either with vehicle (D) or BQ788 (E) were stained with anti CD-31 to highlight blood vessels (brown staining, Lahav et al, 1999).
RNA was prepared from the different cell lines in different culture conditions using SV total RNA isolation kit (Promega) according to the manufacturer's protocol. For each sample RNA concentration was determined using the total RNA nano procedure of an Agilent bioanalyzer. A stock of SK-MEL-28 RNA aliquots was prepared containing 10, 20, 50, 100, 200, 500 and 1000 ng/12 μl for use as a standard curve and kept in −80° C. For the experimental unknown samples, a stock of 100 ng/12 μl RNA aliquots from each cell line and condition was prepared and stored at −80° C. […] A standard curve of Ct versus RNA quantity was established and accordingly the Ct in the unknown samples was correlated to quantity of transcript. […]

`CCCC[C@@H](NC(=O)[C@@H](Cc1cn(C(=O)OC)c2ccccc12)NC(=O)[C@H](CC(C)(C)C)NC(=O)N1[C@H](C)CCC[C@@H]1C)C(=O)O` [BQ788, N-cis-2,6-dimethylpiperidinocarbonyl-L-γ-methylleucyl-D-1-methoxycarbonyltrptophanyl-D-norleucine] was tested, and the “reduction in cell number” value [1] was 12% and the “HIF-1α RNA expression levels” value (HIF-1α) was “small but significant changes”.
